Tests used:
Assay in all cases: Test B preemergence/postemergence greenhouse plant response rating 0 to 10
barley = format: in vivo, Hordeum vulgare; details: for Plant response rating, Barley: 0 to 10 scale
In short: (§1)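 Test chemicals, dissolved in a non-phytotoxic solvent, were applied to soil at planting and, at the same time, over foliage of seedlings at the one to four leaf stage.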

barnyardgrass = format: in vivo, Echinochloa crus-galli; details: for Plant response rating, Barnyardgrass: 0 to 10 scale
In short: as §1

bedstraw = format: in vivo, Galium aparine; details: for Plant response rating, Bedstraw: 0 to 10 scale
In short: as §1

blackgrass = format: in vivo, Alopecurus myosuroides; details: for Plant response rating, Blackgrass: 0 to 10 scale
In short: as §1

cheatgrass = format: in vivo, Bromus secalinus; details: for Plant response rating, Cheatgrass: 0 to 10 scale
In short: as §1

chickweed = format: in vivo, Stellaria media; details: for Plant response rating, Chickweed: 0 to 10 scale
In short: as §1

cocklebur = format: in vivo, Xanthium pensylvanicum; details: for Plant response rating, Cocklebur: 0 to 10 scale
In short: as §1

corn = format: in vivo, Zea mays; details: for Plant response rating, Corn: 0 to 10 scale
In short: as §1

cotton = format: in vivo, Gossypium hirsutum; details: for Plant response rating, Cotton: 0 to 10 scale
In short: as §1

crabgrass = format: in vivo, Digitaria spp.; details: for Plant response rating, Crabgrass: 0 to 10 scale
In short: as §1

giant foxtail = format: in vivo, Setaria faberii; details: for Plant response rating, Giant foxtail: 0 to 10 scale
In short: as §1

lambsquarters = format: in vivo, Chenopodium album; details: for Plant response rating, Lambsquarter: 0 to 10 scale
In short: as §1

morningglory = format: in vivo, Ipomoea hederacea; details: for Plant response rating, Morningglory: 0 to 10 scale
In short: as §1

rape = format: in vivo, Brassica napus; details: for Plant response rating, Rape: 0 to 10 scale
In short: as §1

rice = format: in vivo, Oryza sativa; details: for Plant response rating, Rice: 0 to 10 scale
In short: as §1

sorghum = format: in vivo, Sorghum bicolor; details: for Plant response rating, Sorghum: 0 to 10 scale
In short: as §1

soybean = format: in vivo, Glycine max; details: for Plant response rating, Soybean: 0 to 10 scale
In short: as §1

sugar beet = format: in vivo, Beta vulgaris; details: for Plant response rating, Sugar beet: 0 to 10 scale
In short: as §1

velvetleaf = format: in vivo, Abutilon theophrasti; details: for Plant response rating, Velvetleaf: 0 to 10 scale
In short: as §1

wheat = format: in vivo, Triticum aestivum; details: for Plant response rating, Wheat: 0 to 10 scale
In short: as §1

wild buckwheat = format: in vivo, Polygonum convolvulus; details: for Plant response rating, Wild buckwheat: 0 to 10 scale
In short: as §1

wild oat = format: in vivo, Avena fatua; details: for Plant response rating, Wild oat: 0 to 10 scale
In short: as §1

purple nutsedge = format: in vivo, Cyperus rotundus; details: for Plant response rating, Nutsedge: 0 to 10 scale
In short: as §1

CCOC(=O)COc1cc(-c2nn3c(c2Cl)CCCC3)c(Cl)cc1Cl [Compound 73]
Plant response rating, Barley (barley; POSTEMERGENCE, Rate 50 g/ha): 2
Plant response rating, Barley (barley; PREEMERGENCE, Rate 50 g/ha): 0
Plant response rating (0 to 10 scale), Barley (barley; PREEMERGENCE, Rate 200 g/ha): 0
Plant response rating, Barley (barley; Rate 200 g/ha, POSTEMERGENCE): 3
Plant response rating, Barnyardgrass (barnyardgrass; POSTEMERGENCE, Rate 50 g/ha): 7
Plant response rating, Barnyardgrass (barnyardgrass; PREEMERGENCE, Rate 50 g/ha): 0
Plant response rating (0 to 10 scale), Barnyardgrass (barnyardgrass; PREEMERGENCE, Rate 200 g/ha): 0
Plant response rating, Barnyardgrass (barnyardgrass; Rate 200 g/ha, POSTEMERGENCE): 9
Plant response rating, Bedstraw (bedstraw; POSTEMERGENCE, Rate 50 g/ha): 7
Plant response rating, Bedstraw (bedstraw; PREEMERGENCE, Rate 50 g/ha): 2
Plant response rating (0 to 10 scale), Bedstraw (bedstraw; PREEMERGENCE, Rate 200 g/ha): 9
Plant response rating, Bedstraw (bedstraw; Rate 200 g/ha, POSTEMERGENCE): 8
Plant response rating, Blackgrass (blackgrass; POSTEMERGENCE, Rate 50 g/ha): 5
Plant response rating, Blackgrass (blackgrass; PREEMERGENCE, Rate 50 g/ha): 0
Plant response rating (0 to 10 scale), Blackgrass (blackgrass; PREEMERGENCE, Rate 200 g/ha): 0
Plant response rating, Blackgrass (blackgrass; Rate 200 g/ha, POSTEMERGENCE): 5
Plant response rating, Cheatgrass (cheatgrass; POSTEMERGENCE, Rate 50 g/ha): 3
Plant response rating, Cheatgrass (cheatgrass; PREEMERGENCE, Rate 50 g/ha): 0
Plant response rating (0 to 10 scale), Cheatgrass (cheatgrass; PREEMERGENCE, Rate 200 g/ha): 2
Plant response rating, Cheatgrass (cheatgrass; Rate 200 g/ha, POSTEMERGENCE): 6
Plant response rating, Chickweed (chickweed; POSTEMERGENCE, Rate 50 g/ha): 2
Plant response rating, Chickweed (chickweed; PREEMERGENCE, Rate 50 g/ha): 2
Plant response rating (0 to 10 scale), Chickweed (chickweed; PREEMERGENCE, Rate 200 g/ha): 4
Plant response rating, Chickweed (chickweed; Rate 200 g/ha, POSTEMERGENCE): 3
Plant response rating, Cocklebur (cocklebur; POSTEMERGENCE, Rate 50 g/ha): 8
Plant response rating, Cocklebur (cocklebur; PREEMERGENCE, Rate 50 g/ha): 0
Plant response rating (0 to 10 scale), Cocklebur (cocklebur; PREEMERGENCE, Rate 200 g/ha): 0
Plant response rating, Cocklebur (cocklebur; Rate 200 g/ha, POSTEMERGENCE): 10
Plant response rating, Corn (corn; POSTEMERGENCE, Rate 50 g/ha): 5
Plant response rating, Corn (corn; PREEMERGENCE, Rate 50 g/ha): 0
Plant response rating (0 to 10 scale), Corn (corn; PREEMERGENCE, Rate 200 g/ha): 0
Plant response rating, Corn (corn; Rate 200 g/ha, POSTEMERGENCE): 8
Plant response rating, Cotton (cotton; POSTEMERGENCE, Rate 50 g/ha): 10
Plant response rating, Cotton (cotton; PREEMERGENCE, Rate 50 g/ha): 0
Plant response rating (0 to 10 scale), Cotton (cotton; PREEMERGENCE, Rate 200 g/ha): 0
Plant response rating, Cotton (cotton; Rate 200 g/ha, POSTEMERGENCE): 10
Plant response rating, Crabgrass (crabgrass; POSTEMERGENCE, Rate 50 g/ha): 3
Plant response rating, Crabgrass (crabgrass; PREEMERGENCE, Rate 50 g/ha): 0
Plant response rating (0 to 10 scale), Crabgrass (crabgrass; PREEMERGENCE, Rate 200 g/ha): 0
Plant response rating, Crabgrass (crabgrass; Rate 200 g/ha, POSTEMERGENCE): 6
Plant response rating, Giant foxtail (giant foxtail; POSTEMERGENCE, Rate 50 g/ha): 5
Plant response rating, Giant foxtail (giant foxtail; PREEMERGENCE, Rate 50 g/ha): 0
Plant response rating (0 to 10 scale), Giant foxtail (giant foxtail; PREEMERGENCE, Rate 200 g/ha): 0
Plant response rating, Giant foxtail (giant foxtail; Rate 200 g/ha, POSTEMERGENCE): 5
Plant response rating, Lambsquarter (lambsquarters; POSTEMERGENCE, Rate 50 g/ha): 9
Plant response rating, Lambsquarter (lambsquarters; PREEMERGENCE, Rate 50 g/ha): 9
Plant response rating (0 to 10 scale), Lambsquarter (lambsquarters; PREEMERGENCE, Rate 200 g/ha): 10
Plant response rating, Lambsquarter (lambsquarters; Rate 200 g/ha, POSTEMERGENCE): 10
Plant response rating, Morningglory (morningglory; POSTEMERGENCE, Rate 50 g/ha): 10
Plant response rating, Morningglory (morningglory; PREEMERGENCE, Rate 50 g/ha): 0
Plant response rating (0 to 10 scale), Morningglory (morningglory; PREEMERGENCE, Rate 200 g/ha): 0
Plant response rating, Morningglory (morningglory; Rate 200 g/ha, POSTEMERGENCE): 9
Plant response rating, Rape (rape; POSTEMERGENCE, Rate 50 g/ha): 7
Plant response rating, Rape (rape; PREEMERGENCE, Rate 50 g/ha): 2
Plant response rating (0 to 10 scale), Rape (rape; PREEMERGENCE, Rate 200 g/ha): 2
Plant response rating, Rape (rape; Rate 200 g/ha, POSTEMERGENCE): 10
Plant response rating, Rice (rice; POSTEMERGENCE, Rate 50 g/ha): 6
Plant response rating, Rice (rice; PREEMERGENCE, Rate 50 g/ha): 0
Plant response rating (0 to 10 scale), Rice (rice; PREEMERGENCE, Rate 200 g/ha): 0
Plant response rating, Rice (rice; Rate 200 g/ha, POSTEMERGENCE): 6
Plant response rating, Sorghum (sorghum; POSTEMERGENCE, Rate 50 g/ha): 4
Plant response rating, Sorghum (sorghum; PREEMERGENCE, Rate 50 g/ha): 0
Plant response rating (0 to 10 scale), Sorghum (sorghum; PREEMERGENCE, Rate 200 g/ha): 0
Plant response rating, Sorghum (sorghum; Rate 200 g/ha, POSTEMERGENCE): 5
Plant response rating, Soybean (soybean; POSTEMERGENCE, Rate 50 g/ha): 2
Plant response rating, Soybean (soybean; PREEMERGENCE, Rate 50 g/ha): 0
Plant response rating (0 to 10 scale), Soybean (soybean; PREEMERGENCE, Rate 200 g/ha): 0
Plant response rating, Soybean (soybean; Rate 200 g/ha, POSTEMERGENCE): 5
Plant response rating, Sugar beet (sugar beet; POSTEMERGENCE, Rate 50 g/ha): 10
Plant response rating, Sugar beet (sugar beet; PREEMERGENCE, Rate 50 g/ha): 5
Plant response rating (0 to 10 scale), Sugar beet (sugar beet; PREEMERGENCE, Rate 200 g/ha): 5
Plant response rating, Sugar beet (sugar beet; Rate 200 g/ha, POSTEMERGENCE): 10
Plant response rating, Velvetleaf (velvetleaf; POSTEMERGENCE, Rate 50 g/ha): 6
Plant response rating, Velvetleaf (velvetleaf; PREEMERGENCE, Rate 50 g/ha): 2
Plant response rating (0 to 10 scale), Velvetleaf (velvetleaf; PREEMERGENCE, Rate 200 g/ha): 7
Plant response rating, Velvetleaf (velvetleaf; Rate 200 g/ha, POSTEMERGENCE): 9
Plant response rating, Wheat (wheat; POSTEMERGENCE, Rate 50 g/ha): 2
Plant response rating, Wheat (wheat; PREEMERGENCE, Rate 50 g/ha): 0
Plant response rating (0 to 10 scale), Wheat (wheat; PREEMERGENCE, Rate 200 g/ha): 2
Plant response rating, Wheat (wheat; Rate 200 g/ha, POSTEMERGENCE): 4
Plant response rating, Wild buckwheat (wild buckwheat; POSTEMERGENCE, Rate 50 g/ha): 10
Plant response rating, Wild buckwheat (wild buckwheat; PREEMERGENCE, Rate 50 g/ha): 0
Plant response rating (0 to 10 scale), Wild buckwheat (wild buckwheat; PREEMERGENCE, Rate 200 g/ha): 3
Plant response rating, Wild buckwheat (wild buckwheat; Rate 200 g/ha, POSTEMERGENCE): 10
Plant response rating, Wild oat (wild oat; POSTEMERGENCE, Rate 50 g/ha): 1
Plant response rating, Wild oat (wild oat; PREEMERGENCE, Rate 50 g/ha): 0
Plant response rating (0 to 10 scale), Wild oat (wild oat; PREEMERGENCE, Rate 200 g/ha): 2
Plant response rating, Wild oat (wild oat; Rate 200 g/ha, POSTEMERGENCE): 1
Plant response rating, Nutsedge (purple nutsedge; POSTEMERGENCE, Rate 50 g/ha): 2
Plant response rating, Nutsedge (purple nutsedge; PREEMERGENCE, Rate 50 g/ha): 0
Plant response rating (0 to 10 scale), Nutsedge (purple nutsedge; PREEMERGENCE, Rate 200 g/ha): 0
Plant response rating, Nutsedge (purple nutsedge; Rate 200 g/ha, POSTEMERGENCE): 3

— US6358885B1, “Substituted phenylheterocyclic herbicides” (Mississippi State University, priority 1992, dated 2002)
